What follows are compounds tested against T1, SCD5 (Homo sapiens, UniProt Q86SK9) (assay: Growth inhibition of humanized yeast strain expressing SCD5 as sole desaturase). Settings: humanized yeast strain expressing SCD5.
T1 construct: host or cells: S. cerevisiae ole1Δ strain (W303 pdr1Δ pdr3Δ background), plasmid pRS316 with TDH3 promoter and CYC1 terminator
T1 sequence (Q86SK9 1-330): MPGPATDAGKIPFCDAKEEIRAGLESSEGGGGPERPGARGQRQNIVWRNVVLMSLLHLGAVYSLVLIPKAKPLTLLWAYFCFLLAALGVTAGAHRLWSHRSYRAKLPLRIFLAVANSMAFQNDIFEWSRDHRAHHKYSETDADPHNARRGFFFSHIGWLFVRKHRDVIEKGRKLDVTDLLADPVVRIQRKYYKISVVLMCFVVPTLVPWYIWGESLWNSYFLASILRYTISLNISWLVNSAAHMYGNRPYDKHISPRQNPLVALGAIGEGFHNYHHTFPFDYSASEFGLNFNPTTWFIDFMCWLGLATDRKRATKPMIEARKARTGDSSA
Format: cell-based
Protocol: Strain oleΔ (yeast ole1 deletion mutant) was constructed by deleting OLE1 with NAT-MX6 in BY4741, amplifying the deletion cassette from the genomic DNA of the resulting strain with primers flanking the ORF by 1000 bp upstream and downstream, transforming the resulting deletion cassette into W303 pdr1Δ pdr3Δ, and plating transformants on YPD media containing G418 (200 μg/mL) and nourseothricin ([…]) with 0.01% TWEEN®-20 and 0.5 mM oleic and palmitoleic acids.
The coding sequence of yeast OLE1 was also cloned into this plasmid). These clones were then transformed into the ole1Δ strain and plated on CSM-Ura media (CSM lacking uracil) with 2% glucose (w/v) and independent colonies were isolated and amplified.
All compound profiling experiments were performed using the same basic protocol. Different genetic backgrounds (e.g., gene deletions) or conditions (e.g., addition of oleic and palmitoleic acid) were replaced as indicated below.
Yeast were cultured using standard techniques in complete synthetic media (CSM) and yeast nitrogen base supplemented with 2% (w/v) carbon source (glucose, raffinose, or galactose) to regulate the expression of the toxic disease protein. An initial starter culture was inoculated in 3 mL CSM-Glucose media and incubated overnight in a 30° C. shaker incubator (225 rpm). Saturated morning cultures were then diluted 1:20 in fresh CSM-Raffinose media and grown for 6 h to an OD600 (optical density) of ˜0.4-0.8 at 30° C. with shaking.
Compound administration was performed in two separate steps. First, 15 μL of CSM-Galactose (induces expression of toxic protein) was dispensed into clear 384 well assay plates using a MULTIDROP™ Combi reagent dispenser. […] The cultures described above were then diluted to a 2× concentration (0.03 and 0.08 for alpha-synuclein and ApoE, final ODsoo of 0.015 and 0.04) in CSM-Galactose. For wild-type and Ole1/SCD1/SCD5 plasmid-containing strains, the 2× cell density was 0.02. […] For 96-well assays (FIGS. 1A and 1B), compound dilutions in DMSO were generated in 96 well plates and 1 μL was manually pipetted into 96 well clear bottom assay plates.
For experiments using a plasmid-borne copy of Ole1, SCD1, or SCD5 (FIGS. 3B, 6, and 7), media lacking uracil (SX-Ura, where X is glucose, raffinose, or galactose), was used for all steps of the compound profiling protocol to ensure its maintenance throughout the assay.
After yeast delivery, assay plates were incubated under humidified conditions at 30° C. for 24 to 40 h. ApoE4 rescue experiments were stopped at 24 h, aSyn experiments at 40 h, Ole1 at 24 h, and SCD1/SCD5 at 40 h. The growth of yeast was monitored by reading the ODsoo of each well using a microplate reader (Perkin Elmer EnVision™).
In the case of Cc1nn(C)c2cc(-c3noc(C4CCN(c5nc(C(C)C)no5)CC4)n3)ccc12 [Compound 581], the IC50 is reported as over 45 µM. In the case of CC(C)n1ncc2ccc(-c3noc([C@H]4CC[C@H](NC(=O)OC(C)(C)C)CC4)n3)cc21 [Compound 537], the IC50 is reported as over 45 µM. CC(C)n1ncc2ccc(-c3noc(C4CCN(C(=O)c5nccs5)CC4)n3)cc21 [Compound 549] was tested, and the IC50 was 1.21 µM. CC(C)n1ncc2ccc(-c3noc(C4CCN(C(=O)c5ccccc5F)CC4)n3)cc21 [Compound 532] showed an IC50 of 2.15 µM. Work on Cc1nn(C)c2cc(-c3noc([C@@H]4CCN(C(=O)CNC(=O)c5ccccc5)CC4(F)F)n3)ccc12 [Compound 577] yielded an IC50 of over 45 µM. Compound CC(C)n1ncc2ccc(-c3noc(C4CCN(C(=O)c5ccc(Cl)cc5F)CC4)n3)cc21 [Compound 533] has an IC50 of 3.33 µM. With CC(C)n1ncc2ccc(-c3noc(C4CCN(C(=O)c5cscn5)CC4)n3)cc21 [Compound 573] the IC50 was 5.6 µM. Work on C[C@@H](O)C(=O)N1CCC(c2nc(-c3ccc4cnn(C5COC5)c4c3)no2)CC1 [Compound 597] yielded an IC50 of over 45 µM. Work on CC(C)n1ncc2ccc(-c3noc(C4CCN(C(=O)c5ncc(Cl)s5)CC4)n3)cc21 [Compound 589] yielded an IC50 of 0.356 µM. With CC(C)n1ncc2ccc(-c3noc(N4CCN(C(=O)OCC(F)(F)F)CC4)n3)cc21 [Compound 593] the IC50 was over 45 µM. In the case of CC(C)n1ncc2ccc(-c3nc(C4CCN(C(=O)c5cccc(F)c5)CC4)no3)cc21 [Compound 506], the IC50 is reported as 0.81 µM. O=C(c1ccccc1Cl)N1CCC(c2nc(-c3ccc4cnn(C5COC5)c4c3)no2)CC1 [Compound 562] showed an IC50 of 1.5 µM. CC(C)CS(=O)(=O)N1CCC(c2nc(-c3ccc4cnn(C(C)C)c4c3)no2)CC1 [Compound 565] was tested, and the IC50 was over 45 µM. For CC(C)n1ncc2ccc(-c3noc(C4CCN(C(=O)[C@@H]5CC(=O)N(c6cccc(C#N)c6)C5)CC4)n3)cc21 [Compound 528], the IC50 was over 45 µM. CC(C)n1ncc2ccc(-c3noc(C4CCN(C(=O)c5ccc(F)cc5)CC4)n3)cc21 [Compound 544] gave an IC50 of 10 µM. CC(C)n1ncc2ccc(-c3noc(N4CC5(CCN(C(=O)OC(C)(C)C)CC5)C4)n3)cc21 [Compound 555] was tested, and the IC50 was over 45 µM. In the case of CC(C)n1ncc2ccc(N3CC4(CCN(C(=O)OC5CC5)CC4)C3)cc21 [Compound 594], the IC50 is reported as 11.8 µM. CC1(CC(=O)N2CCC(c3nc(-c4ccc5cnn(C6COC6)c5c4)no3)CC2)CC1 [Compound 559] gave an IC50 of 1.19 µM. CC1(OC(=O)N2CCC(c3nc(-c4ccc5cnn(C6COC6)c5c4)no3)CC2)CC1 [Compound 576] was tested, and the IC50 was 0.028 µM. In the case of CC(C)n1ncc2ccc(-c3noc([C@H]4CC[C@@H](N)CC4)n3)cc21 [Compound 536], the IC50 is reported as over 45 µM. Cc1nn(C)c2cc(-c3noc(C4CCN(C(=O)CC5CN(C(=O)OC(C)(C)C)C5)CC4)n3)ccc12 [Compound 502] showed an IC50 of 38.9 µM. O=C(NCC(=O)N1CCC(c2nc(-c3ccc4cnn(C5COC5)c4c3)no2)CC1)c1ccccc1 [Compound 598] was tested, and the IC50 was over 45 µM. In the case of CC(C)N1C(=O)CCc2ccc(-c3noc(C4CCN(C(=O)OC(C)(C)C)CC4)n3)cc21 [Compound 572], the IC50 is reported as 15 µM. With CC(=O)N[C@H]1CC[C@H](c2nc(-c3ccc4cnn(C(C)C)c4c3)no2)CC1 [Compound 535] the IC50 was over 45 µM. In the case of CC(C)n1ncc2ccc(-c3noc(N4CCN(C(=O)CC5(C)CC5)CC4)n3)cc21 [Compound 495], the IC50 is reported as 1.92 µM. CC(C)n1ncc2ccc(-c3noc(C4=C(F)CN(C(=O)OC(C)(C)C)CC4)n3)cc21 [Compound 510] was tested, and the IC50 was 4.16 µM. Work on CC(C)n1ncc2ccc(-c3noc(C4CCN(C(=O)c5ccsc5Cl)CC4)n3)cc21 [Compound 575] yielded an IC50 of 4.68 µM.

Same assay, conditions: yeast strain expressing human SCD5 as sole desaturase; Table 8
With CC(C)C(=O)N1CCC(c2noc(-c3cc(C4CCOC4)ccn3)n2)CC1 (stereo not drawn) [Compound 1204] the IC50 was 2.39 µM. CC(C)(C)OC(=O)N1CCC(c2noc(-c3cnnc(C4CCOC4)c3)n2)CC1 (stereo not drawn) [Compound 1234] gave an IC50 of 0.49 µM. CC(C)(C)OC(=O)N1CCC(c2cc(-c3ccnc(C4CCOC4)n3)no2)CC1 (stereo not drawn) [Compound 1202] gave an IC50 of 7.13 µM. For O=C(OC1CCC1)N1CCC(c2noc(-c3ccn(C4COC4)c(=O)c3)n2)CC1 [Compound 1292], the IC50 was 15.1 µM. For CC(C)(C)OC(=O)N1CCC(c2noc(-c3ccc(C4CCOC4)nc3)n2)CC1 (stereo not drawn) [Compound 1262], the IC50 was 14.1 µM. Compound CC(C)(C)OC(=O)N1CCC(c2noc(-c3cc(C4CCOC4)c(F)cn3)n2)CC1 (stereo not drawn) [Compound 1284] has an IC50 of 0.02 µM. Compound CC1(OC(=O)N2CCC(c3noc(-c4cncc(C5CCOC5)c4)n3)CC2)CC1 (stereo not drawn) [Compound 1206] has an IC50 of 0.32 µM. CC1(OC(=O)N2CCC(c3noc(-c4cccc(C5CCOC5)n4)n3)CC2)CC1 (stereo not drawn) [Compound 1197] showed an IC50 of 17.9 µM. Cn1cc2c(n1)CN(c1nc(C3CCN(C(=O)OC(C)(C)C)CC3)no1)CC2 [Compound 1272] showed an IC50 of 7.54 µM. For COC(=O)N1CCC(c2nc(-c3ccnc(C4CCOC4)c3)no2)CC1 (stereo not drawn) [Compound 1230], the IC50 was 6.88 µM. CC(C)(C)OC(=O)N1CCC(c2noc(-c3cc(N4CCC(F)(F)C4)c(F)cn3)n2)CC1 [Compound 1287] showed an IC50 of 0.34 µM. Compound CC(C)C(=O)N1CCC(c2noc(N3CCc4cnn(C5COC5)c4C3)n2)CC1 [Compound 1223] has an IC50 of 2.3 µM. In the case of CC(C)(C)OC(=O)N1CCC(c2noc(-c3ccnc(-c4cnoc4)c3)n2)CC1 [Compound 1213], the IC50 is reported as 0.06 µM. CC1(OC(=O)N2CCC(c3noc(-c4cc(C5CCOC5)c(F)cn4)n3)CC2)CC1 (stereo not drawn) [Compound 1298] showed an IC50 of 0.03 µM. Work on O=C(C1CC1)N1CCC(c2noc(-c3ccnc(N4CCC(F)(F)C4)c3)n2)CC1 [Compound 1247] yielded an IC50 of 1.05 µM. Work on CC(C)(C)OC(=O)N1CCC(c2noc(-c3ccc(F)c(N4CCOC5(CC5)C4)c3)n2)CC1 [Compound 1303] yielded an IC50 of 0.05 µM. Work on CC(C)C(=O)N1CCC(c2noc(-c3ccc(C#N)c(N4CCOCC4)c3)n2)CC1 [Compound 1291] yielded an IC50 of 0.65 µM. O=C(C1CC1)N1CCC(c2noc(-c3cc(C4CCOC4)ccn3)n2)CC1 (stereo not drawn) [Compound 1278] gave an IC50 of 2.73 µM. With CC(C)(C)OC(=O)N1CCC(c2noc(-c3ccnc(-c4cnco4)c3)n2)CC1 [Compound 1245] the IC50 was 0.58 µM. Compound COC(=O)N1CCC(c2noc(N3CCc4cnn(C(C)C)c4C3)n2)CC1 [Compound 1260] has an IC50 of 0.25 µM. COC(=O)N1CCC(c2noc(-c3cc(C4CCOC4)ncc3F)n2)CC1 (stereo not drawn) [Compound 1274] gave an IC50 of 0.19 µM. In the case of O=C(C1CCC1)N1CCC(c2noc(-c3ccnc([C@H]4CCOC4)c3)n2)CC1 [Compound 1240], the IC50 is reported as 0.2 µM. Work on CC1CN(c2cc(-c3nc(C4CCN(C(=O)OC(C)(C)C)CC4)no3)ccc2F)CC(C)O1 (stereo not drawn) [Compound 1282] yielded an IC50 of 0.22 µM. CCC(=O)N1CCC(c2noc(-c3cc(N4CCOCC4)ccn3)n2)CC1 [Compound 1300] gave an IC50 of 0.06 µM. Work on CC(C)(C)OC(=O)N1CCC(c2noc(-c3cc(N4CCOCC4)c(F)cn3)n2)CC1 [Compound 1273] yielded an IC50 of 0.02 µM. For CC(C)CC(=O)N1CCC(c2noc(-c3cnc4cnn(C5COC5)c4c3)n2)CC1 [Compound 1214], the IC50 was 0.39 µM. With O=C(C1CCC1)N1CCC(c2noc(-c3cc(C4CCOC4)c(F)cn3)n2)CC1 (stereo not drawn) [Compound 1297] the IC50 was 0.16 µM. In the case of CCC(=O)N1CCC(c2cc(-c3cc4c(cn3)cnn4C3COC3)on2)CC1 [Compound 1227], the IC50 is reported as 0.96 µM. O=C(C1CC1)N1CCC(c2noc(-c3cnc4cnn(C5CCOC5)c4c3)n2)CC1 (stereo not drawn) [Compound 1251] gave an IC50 of 0.03 µM. Compound CC(C)(C)OC(=O)N1CCC(c2noc(-c3ccnc(-c4ccon4)c3)n2)CC1 [Compound 1277] has an IC50 of 2.5 µM. Compound CC(C)(C)OC(=O)N1CCN(c2cc(-c3ccc4cnn(C5COC5)c4n3)on2)CC1 [Compound 1228] has an IC50 of 1.95 µM. CC(C)(C)OC(=O)N1CCC(c2noc(-c3cc(N4CCOCC4)ccn3)n2)CC1 [Compound 1288] showed an IC50 of 5.55 µM. CC(C)C(=O)N1CCC(c2noc(-c3ccnc(-c4cnco4)c3)n2)CC1 [Compound 1264] gave an IC50 of 3.27 µM.

Source: patent US11873298B2, “Compounds and uses thereof” (JANSSEN PHARMACEUTICA NV, priority 2017, dated 2024)
